Where “and” joins values, the source holds several entries; their conditions need not be identical. Equal entries are not always repeated. Inconclusive results and toxic doses are left out.
System: BDF1 mice, B16 melanoma ip, median survival T/C
Assay: NCI In Vivo Anticancer Drug Screen. Data for tumor model B16 Melanoma (intraperitoneal) in B6D2F1 (BDF1) mice
Conditions: endpoint: median survival time, higher = longer survival
Method in brief: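 In this screen, activity was judged from survival or tumor size in treated versus vehicle-treated tumor-bearing mice, reported as T/C.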

[1] = dose: 12.5 mg/kg/injection, schedule: Q01DX009 (ip), vehicle: saline with Tween-80
[2] = dose: 25.0 mg/kg/injection, schedule: Q01DX009 (ip), vehicle: saline with Tween-80
[3] = dose: 12.5 mg/kg/injection, schedule: Q01DX009 (ip), vehicle: water
[4] = dose: 25.0 mg/kg/injection, schedule: Q01DX009 (ip), vehicle: water
[5] = dose: 50.0 mg/kg/injection, schedule: Q01DX009 (ip), vehicle: water

Cc1ccc(NC(=O)c2cccc(C(=O)Nc3ccc(C)c(C)c3)c2)cc1C was tested, and the T/C (dose: 100.0 mg/kg/injection, schedule: Q04DX003 (ip), vehicle: Klucel (hydroxypropylcellulose) (HPC)) was 97 % of control, the T/C (dose: 200.0 mg/kg/injection, schedule: Q04DX003 (ip), vehicle: Klucel (hydroxypropylcellulose) (HPC)) was 90 % of control and the T/C (dose: 400.0 mg/kg/injection, schedule: Q04DX003 (ip), vehicle: Klucel (hydroxypropylcellulose) (HPC)) was 93 % of control.
CC1OC(OC2CC(O)(C(=O)CO)Cc3c(O)c4c(c(O)c32)C(=O)c2ccccc2C4=O)CC(N)C1O (stereo unspecified) was tested, and the T/C (dose: 0.1 mg/kg/injection, schedule: Q01DX001 (ip), vehicle: water) was 102 % of control, the T/C (dose: 130.0 micrograms/kg/injection, schedule: Q01DX004 (ip), vehicle: other) was 121 % of control and the T/C (dose: 216.0 micrograms/kg/injection, schedule: Q04DX003 (ip), vehicle: water) was 182 % of control. The T/C (dose: 600.0 micrograms/kg/injection, schedule: Q01DX004 (ip), vehicle: other) was 114 % of control, the T/C (dose: 600.0 micrograms/kg/injection, schedule: Q04DX003 (ip), vehicle: water) was 150 % of control and 283 % of control and the T/C (dose: 1000.0 micrograms/kg/injection, schedule: Q04DX003 (ip), vehicle: water) was 154 % of control and 211 % of control.
For N#CCc1ccc(Cl)c(Cl)c1, the T/C (dose: 6.25 mg/kg/injection, schedule: Q01DX009 (ip), vehicle: saline with Tween-80) was 90 % of control, the T/C [1] was 88 % of control and the T/C [2] was 95 % of control.
With O=C(NCCN1CC1)C(=O)NCCN1CC1 the T/C (dose: 1.5 mg/kg/injection, schedule: Q01DX009 (ip), vehicle: saline with Tween-80) was 153 % of control, the T/C (dose: 3.12 mg/kg/injection, schedule: Q04DX003 (ip), vehicle: saline with Tween-80) was 178 % of control and the T/C (dose: 6.25 mg/kg/injection, schedule: Q04DX003 (ip), vehicle: saline with Tween-80) was 168 % of control.
COc1cc2cnccc2cc1O was tested, and the T/C [3] was 104 % of control, the T/C [4] was 102 % of control and the T/C [5] was 103 % of control. For the same compound, the T/C (dose: 100.0 mg/kg/injection, schedule: Q01DX009 (ip), vehicle: water) was 109 % of control.
For CN(C)CCCN1c2ccccc2Sc2ccccc21, the T/C (dose: 4.6 mg/kg/injection, schedule: Q01DX009 (ip), vehicle: saline) was 111 % of control, the T/C (dose: 9.3 mg/kg/injection, schedule: Q01DX009 (ip), vehicle: saline) was 111 % of control and the T/C (dose: 18.75 mg/kg/injection, schedule: Q01DX009 (ip), vehicle: saline with Tween-80) was 101 % of control. The T/C (dose: 18.75 mg/kg/injection, schedule: Q01DX009 (ip), vehicle: saline) was 120 % of control, the T/C (dose: 35.5 mg/kg/injection, schedule: Q01DX009 (ip), vehicle: saline) was 111 % of control and the T/C (dose: 37.5 mg/kg/injection, schedule: Q01DX009 (ip), vehicle: saline with Tween-80) was 97 % of control. For the same compound, the T/C (dose: 75.0 mg/kg/injection, schedule: Q01DX009 (ip), vehicle: saline with Tween-80) was 95 % of control.
For C=C(NC(=O)C(=C)NC(=O)c1csc(C2=NC3c4csc(n4)C4NC(=O)c5csc(n5)C(C(C)(O)C(C)O)NC(=O)C5CSC(=N5)/C(=C/C)NC(=O)C(C(C)O)NC(=O)c5csc(n5)C3(CC2)NC(=O)C(C)NC(=O)C(=C)NC(=O)C(C)NC(=O)C(C(C)CC)NC2C=Cc3c(C(C)O)cc(nc3C2O)C(=O)OC4C)n1)C(N)=O (stereo unspecified), the T/C (dose: 50.0 mg/kg/injection, schedule: Q01DX009 (ip), vehicle: Klucel (hydroxypropylcellulose) (HPC)) was 106 % of control, the T/C (dose: 100.0 mg/kg/injection, schedule: Q01DX009 (ip), vehicle: Klucel (hydroxypropylcellulose) (HPC)) was 109 % of control and the T/C (dose: 200.0 mg/kg/injection, schedule: Q01DX009 (ip), vehicle: Klucel (hydroxypropylcellulose) (HPC)) was 112 % of control.
For CC#CC#C/C=C1\OC2(CCCCO2)C(O)C1OC(=O)CC(C)C (stereo unspecified), the T/C (dose: 10.0 mg/kg/injection, schedule: Q01DX009 (ip), vehicle: Klucel (hydroxypropylcellulose) (HPC)) was 103 % of control, the T/C (dose: 20.0 mg/kg/injection, schedule: Q01DX009 (ip), vehicle: Klucel (hydroxypropylcellulose) (HPC)) was 103 % of control and the T/C (dose: 40.0 mg/kg/injection, schedule: Q01DX009 (ip), vehicle: Klucel (hydroxypropylcellulose) (HPC)) was 94 % of control.
With NC(=O)c1ccc(N)nc1 the T/C (dose: 0.09 mg/kg/injection, schedule: Q01DX009 (ip), vehicle: saline) was 100 % of control, the T/C (dose: 0.18 mg/kg/injection, schedule: Q01DX009 (ip), vehicle: saline) was 86 % of control and 107 % of control and the T/C (dose: 0.37 mg/kg/injection, schedule: Q01DX009 (ip), vehicle: saline) was 113 % of control and 114 % of control. The T/C (dose: 0.75 mg/kg/injection, schedule: Q01DX009 (ip), vehicle: saline) was 102 % of control, the T/C (dose: 1.5 mg/kg/injection, schedule: Q01DX009 (ip), vehicle: saline) was 112 % of control and 115 % of control and the T/C (dose: 2.0 mg/kg/injection, schedule: Q01DX009 (ip), vehicle: saline) was 100 % of control. For the same compound, the T/C (dose: 3.12 mg/kg/injection, schedule: Q04DX003 (ip), vehicle: saline) was 111 % of control and the T/C (dose: 6.25 mg/kg/injection, schedule: Q04DX003 (ip), vehicle: saline) was 107 % of control.
With CCc1ccc(NC(=O)C(c2ccccc2)c2ccccc2)cc1 the T/C [1] was 89 % of control and the T/C [2] was 86 % of control.
With COc1ccc(NC(=O)Oc2ccc(Cl)c(C)c2)cc1 the T/C (dose: 200.0 mg/kg/injection, schedule: Q01DX009 (ip), vehicle: saline with Tween-80) was 116 % of control and the T/C (dose: 400.0 mg/kg/injection, schedule: Q01DX009 (ip), vehicle: saline with Tween-80) was 105 % of control.
For O=[N+]([O-])c1cc([N+](=O)[O-])c(Nn2c3ccccc3c3ccccc32)c([N+](=O)[O-])c1, the T/C [1] was 86 % of control, the T/C [2] was 88 % of control and the T/C (dose: 50.0 mg/kg/injection, schedule: Q01DX009 (ip), vehicle: saline with Tween-80) was 93 % of control.
In the case of CC1(O)C=CC(=O)C=C1, the T/C (dose: 6.25 mg/kg/injection, schedule: Q01DX009 (ip), vehicle: water) was 110 % of control, the T/C [3] was 116 % of control and the T/C [4] was 120 % of control. For the same compound, the T/C [5] was 114 % of control.
